The test system of this assay is M. tuberculosis. As to the kind of experiment: Extracellular activity against M. tuberculosis in cholesterol media (Alamar Blue reduction assay). In kind it is cell-based, Mycobacterium tuberculosis. To be noted: Mycobacterium tuberculosis, 240 h, 7H12-Cholesterol media, 10 days; read-out: Cholesterol broth: alamar blue--EC50. A general note: Alamar Blue is a resazurin reagent that responds to reducing activity.
For `Cn1ncnc1CC(=O)N1CCC(c2nc(-c3ccc(F)c(Cl)c3)no2)CC1` [Compound 183, 1-(4-(3-(3-chloro-4-fluorophenyl)-1,2,4-oxadiazol-5-yl)piperidin-1-yl)-2-(1-methyl-1H-1,2,4-triazol-5-yl)ethan-1-one], the EC50 (commonly the midpoint of the concentration-response curve) came out at 210 nM.
In the case of `Cn1ncnc1CC(=O)N1CCC(c2nc(-c3ccc(F)c(F)c3)no2)CC1` [Compound 184, 1-(4-(3-(3,4-difluorophenyl)-1,2,4-oxadiazol-5-yl)piperidin-1-yl)-2-(1-methyl-1H-1,2,4-triazol-5-yl)ethan-1-one] it was 458 nM; in that of `Cn1ncnc1CC(=O)N1CCC(n2nnc(-c3ccc(F)c(F)c3)n2)CC1` [Compound 185, 1-(4-(5-(3,4-difluorophenyl)-2H-tetrazol-2-yl)piperidin-1-yl)-2-(1-methyl-1H-1,2,4-triazol-5-yl)ethan-1-one], 740 nM; in that of `Cn1ncnc1CC(=O)N1CCC(c2nc(-c3ccc(F)cc3)no2)CC1` [Compound 186, 1-(4-(3-(4-fluorophenyl)-1,2,4-oxadiazol-5-yl)piperidin-1-yl)-2-(1-methyl-1H-1,2,4-triazol-5-yl)ethan-1-one], 480 nM.
`Cn1ncnc1CC(=O)N1CCC(n2nnc(-c3ccc(F)cc3)n2)CC1` [Compound 187, 1-(4-(5-(4-fluorophenyl)-2H-tetrazol-2-yl)piperidin-1-yl)-2-(1-methyl-1H-1,2,4-triazol-5-yl)ethan-1-one]: the EC50 was 3070 nM.
As for `Cn1nnnc1CC(=O)N1CCC(c2nc(-c3ccc(F)cc3)no2)CC1` [Compound 188, 1-(4-(3-(4-fluorophenyl)-1,2,4-oxadiazol-5-yl)piperidin-1-yl)-2-(1-methyl-1H-tetrazol-5-yl)ethan-1-one], the figure is 6330 nM; as for `Cc1noc(CC(=O)N2CC3CC2CC3c2nc(C3CCCCC3)no2)n1` (stereo not shown) [Compound 189, 1-(5-(3-cyclohexyl-1,2,4-oxadiazol-5-yl)-2-azabicyclo[2.2.1]heptan-2-yl)-2-(3-methyl-1,2,4-oxadiazol-5-yl)ethan-1-one], > 10000 nM; as for `Cc1noc(CC(=O)N2CC3CC2CC3c2nc(-c3ccc(Cl)c(Cl)c3)no2)n1` (stereo not shown) [Compound 190, 1-(5-(3-(3,4-dichlorophenyl)-1,2,4-oxadiazol-5-yl)-2-azabicyclo[2.2.1]heptan-2-yl)-2-(3-methyl-1,2,4-oxadiazol-5-yl)ethan-1-one], 2900 nM.
As for `Cc1noc(CC(=O)N2CC3CC2CC3c2nc(C3CCC(F)(F)CC3)no2)n1` (stereo not shown) [Compound 191, 1-(5-(3-(4,4-difluorocyclohexyl)-1,2,4-oxadiazol-5-yl)-2-azabicyclo[2.2.1]heptan-2-yl)-2-(3-methyl-1,2,4-oxadiazol-5-yl)ethan-1-one], the figure is > 10000 nM; as for `Cc1noc(CC(=O)N2CC3CC2CC3c2nc(-c3ccc(F)c(F)c3)no2)n1` (stereo not shown) [Compound 192, 1-(5-(3-(3,4-difluorophenyl)-1,2,4-oxadiazol-5-yl)-2-azabicyclo[2.2.1]heptan-2-yl)-2-(3-methyl-1,2,4-oxadiazol-5-yl)ethan-1-one], > 10000 nM; as for `Cc1noc(CC(=O)N2CC3CC2CC3c2nc(-c3ccc(F)cc3)no2)n1` (stereo not shown) [Compound 193, 1-(5-(3-(4-fluorophenyl)-1,2,4-oxadiazol-5-yl)-2-azabicyclo[2.2.1]heptan-2-yl)-2-(3-methyl-1,2,4-oxadiazol-5-yl)ethan-1-one], > 10000 nM.
For the compound `Cc1nonc1CC(=O)N1CC2CC1CC2c1nc(C2CCCCC2)no1` (stereo not shown) [Compound 194, 1-(5-(3-cyclohexyl-1,2,4-oxadiazol-5-yl)-2-azabicyclo[2.2.1]heptan-2-yl)-2-(4-methyl-1,2,5-oxadiazol-3-yl)ethan-1-one], the EC50 came out at 790 nM.
Consider `Cc1nonc1CC(=O)N1CC2CC1CC2c1nc(-c2ccc(Cl)c(Cl)c2)no1` (stereo not shown) [Compound 195, 1-(5-(3-(3,4-dichlorophenyl)-1,2,4-oxadiazol-5-yl)-2-azabicyclo[2.2.1]heptan-2-yl)-2-(4-methyl-1,2,5-oxadiazol-3-yl)ethan-1-one], for which the EC50 turned out to be 94 nM.
In the case of `Cc1nonc1CC(=O)N1CC2CC1CC2c1nc(C2CCC(F)(F)CC2)no1` (stereo not shown) [Compound 196, 1-(5-(3-(4,4-difluorocyclohexyl)-1,2,4-oxadiazol-5-yl)-2-azabicyclo[2.2.1]heptan-2-yl)-2-(4-methyl-1,2,5-oxadiazol-3-yl)ethan-1-one] it was 1250 nM.
For the compound `Cc1nonc1CC(=O)N1CC2CC1CC2c1nc(C2CCC(F)C2)no1` (stereo not shown) [Compound 197, 1-(5-(3-(3-fluorocyclopentyl)-1,2,4-oxadiazol-5-yl)-2-azabicyclo[2.2.1]heptan-2-yl)-2-(4-methyl-1,2,5-oxadiazol-3-yl)ethan-1-one], the EC50 turned out to be 15500 nM.
Take `Cc1nonc1CC(=O)N1CC2CC1CC2c1nc(-c2ccc(F)c(F)c2)no1` (stereo not shown) [Compound 198, 1-(5-(3-(3,4-difluorophenyl)-1,2,4-oxadiazol-5-yl)-2-azabicyclo[2.2.1]heptan-2-yl)-2-(4-methyl-1,2,5-oxadiazol-3-yl)ethan-1-one]: the EC50 worked out at 247 nM.
With `Cc1nonc1CC(=O)N1CC2CC1CC2c1nc(-c2ccc(F)cc2)no1` (stereo not shown) [Compound 199, 1-(5-(3-(4-fluorophenyl)-1,2,4-oxadiazol-5-yl)-2-azabicyclo[2.2.1]heptan-2-yl)-2-(4-methyl-1,2,5-oxadiazol-3-yl)ethan-1-one], the EC50 came out at 324 nM.
In the case of `Cn1ncnc1CC(=O)N1CC2CC1CC2c1nc(-c2ccc(Cl)cc2)no1` (stereo not shown) [Compound 200, 1-(5-(3-(4-chlorophenyl)-1,2,4-oxadiazol-5-yl)-2-azabicyclo[2.2.1]heptan-2-yl)-2-(1-methyl-1H-1,2,4-triazol-5-yl)ethan-1-one] it was 370 nM; in that of `Cn1ncnc1CC(=O)N1CC2CC1CC2c1nc(-c2ccc(Cl)c(F)c2)no1` (stereo not shown) [Compound 201, 1-(5-(3-(4-chloro-3-fluorophenyl)-1,2,4-oxadiazol-5-yl)-2-azabicyclo[2.2.1]heptan-2-yl)-2-(1-methyl-1H-1,2,4-triazol-5-yl)ethan-1-one], 200 nM; in that of `Cn1ncnc1CC(=O)N1CC2CC1CC2c1nc(-c2ccc(Cl)cc2F)no1` (stereo not shown) [Compound 204, 1-(5-(3-(4-chloro-2-fluorophenyl)-1,2,4-oxadiazol-5-yl)-2-azabicyclo[2.2.1]heptan-2-yl)-2-(1-methyl-1H-1,2,4-triazol-5-yl)ethan-1-one], 740 nM.
As for `Cn1ncnc1CC(=O)N1CC2CC1CC2c1nc(-c2ccc(F)cc2)no1` (stereo not shown) [Compound 205, 1-(5-(3-(4-fluorophenyl)-1,2,4-oxadiazol-5-yl)-2-azabicyclo[2.2.1]heptan-2-yl)-2-(1-methyl-1H-1,2,4-triazol-5-yl)ethan-1-one], the figure is 1600 nM.
In the case of `Cc1noc(CC(=O)N2CC3CC(C2)C3c2nc(-c3ccc(Cl)c(Cl)c3)no2)n1` (stereo not shown) [Compound 206, 1-(6-(3-(3,4-dichlorophenyl)-1,2,4-oxadiazol-5-yl)-3-azabicyclo[3.1.1]heptan-3-yl)-2-(3-methyl-1,2,4-oxadiazol-5-yl)ethan-1-one] it was > 10000 nM.
Turning to `Cc1noc(CC(=O)N2CC3CC(C2)C3c2nc(C3CCC(F)(F)CC3)no2)n1` (stereo not shown) [Compound 207, 1-(6-(3-(4,4-difluorocyclohexyl)-1,2,4-oxadiazol-5-yl)-3-azabicyclo[3.1.1]heptan-3-yl)-2-(3-methyl-1,2,4-oxadiazol-5-yl)ethan-1-one], the EC50 was > 10000 nM.
Take `Cc1noc(CC(=O)N2CC3CC(C2)C3c2nc(-c3ccc(F)c(F)c3)no2)n1` (stereo not shown) [Compound 208, 1-(6-(3-(3,4-difluorophenyl)-1,2,4-oxadiazol-5-yl)-3-azabicyclo[3.1.1]heptan-3-yl)-2-(3-methyl-1,2,4-oxadiazol-5-yl)ethan-1-one]: the half-maximal effective concentration (EC50) is ≥ 10000 nM.
Take `Cc1noc(CC(=O)N2CC3CC(C2)C3c2nc(-c3ccc(F)cc3)no2)n1` (stereo not shown) [Compound 209, 1-(6-(3-(4-fluorophenyl)-1,2,4-oxadiazol-5-yl)-3-azabicyclo[3.1.1]heptan-3-yl)-2-(3-methyl-1,2,4-oxadiazol-5-yl)ethan-1-one]: the EC50 was ≥ 10000 nM.
For the compound `Cc1nocc1CC(=O)N1CC2CC(C1)C2c1nc(-c2ccc(F)cc2)no1` (stereo not shown) [Compound 210, 1-(6-(3-(4-fluorophenyl)-1,2,4-oxadiazol-5-yl)-3-azabicyclo[3.1.1]heptan-3-yl)-2-(3-methylisoxazol-4-yl)ethan-1-one], the EC50 was ≥ 25000 nM.
On to `Cc1nonc1CC(=O)N1CC2CC(C1)C2c1nc(C2CCC(C)(F)CC2)no1` (stereo not shown) [Compound 211, 1-(6-(3-(4-fluoro-4-methylcyclohexyl)-1,2,4-oxadiazol-5-yl)-3-azabicyclo[3.1.1]heptan-3-yl)-2-(4-methyl-1,2,5-oxadiazol-3-yl)ethan-1-one], for which the EC50 came to 3760 nM.
As for `Cc1nonc1CC(=O)N1CC2CC(C1)C2c1nc(-c2ccc(Cl)c(Cl)c2)no1` (stereo not shown) [Compound 212, 1-(6-(3-(3,4-dichlorophenyl)-1,2,4-oxadiazol-5-yl)-3-azabicyclo[3.1.1]heptan-3-yl)-2-(4-methyl-1,2,5-oxadiazol-3-yl)ethan-1-one], the figure is 5010 nM; as for `Cc1nonc1CC(=O)N1CC2CC(C1)C2c1nc(C2CCC(F)(F)CC2)no1` (stereo not shown) [Compound 213, 1-(6-(3-(4,4-difluorocyclohexyl)-1,2,4-oxadiazol-5-yl)-3-azabicyclo[3.1.1]heptan-3-yl)-2-(4-methyl-1,2,5-oxadiazol-3-yl)ethan-1-one], 488 nM; as for `Cc1nonc1CC(=O)N1CC2CC(C1)C2c1nc(-c2ccc(F)c(F)c2)no1` (stereo not shown) [Compound 214, 1-(6-(3-(3,4-difluorophenyl)-1,2,4-oxadiazol-5-yl)-3-azabicyclo[3.1.1]heptan-3-yl)-2-(4-methyl-1,2,5-oxadiazol-3-yl)ethan-1-one], 5050 nM.
For the compound `Cc1nonc1CC(=O)N1CC2CC(C1)C2c1nc(-c2ccc(F)cc2)no1` (stereo not shown) [Compound 215, 1-(6-(3-(4-fluorophenyl)-1,2,4-oxadiazol-5-yl)-3-azabicyclo[3.1.1]heptan-3-yl)-2-(4-methyl-1,2,5-oxadiazol-3-yl)ethan-1-one], the EC50 amounted to 132 nM.
